Experiments:
[1] = Tapped density (Test Example 1); format: physicochemical; conditions: sieved 18 mesh, tapped 180 times, W/V1
Procedure: The test materials passed through a sieve (18 mesh) were filled into a measuring cylinder and the weight W(g) of the filled test materials was measured. Next, the measuring cylinder containing the test materials was mechanically tapped 180 times by a powder characteristic measuring device (a powder tester PT-E, Hosokawa Micron Corporation). After tapping, the volume V1 (mL) of the tapped test materials was measured. By the following formula, the tapped density (g/mL) was calculated. Tapped density (g/mL)=W/V1

[2] = Sticking test, scraper pressure of tablets (Test Example 3); format: physicochemical; conditions: tablets containing 200 mg, diameter 8.5 mm, loading pressure 10 kN
Procedure: Tablets (flat-shaped, the diameter 8.5 mm) containing 200 mg of the test materials were prepared by using a tableting process analyzer (Tab Flex TAB-10, OKADA SEIKO CO., LTD.) (the loading pressure: 10 kN). Next, the scraper pressure was measured when the tablets were pushed out by a scraper.

[3] = tested on: Candida albicans TIMM1623; assay: Mouse Candida infection model test, oral administration (Test Example 6); format: in vivo; conditions: immunosuppressed mice, i.v. infection about 3×10^4 CFU/mouse; 1 mg/kg orally once daily for 4 days; observed for 14 days; 5 mice/group
Procedure: Candida albicans TIMM1623, which was obtained from overnight cultures grown on Sabouraud dextrose agar (SDA) plates at 35° C., was suspended in sterile physiological saline, then diluted to prepare a suspension of inoculum organism.
Transient immunosuppression in mice (four-week-old, 5 mice/group) was induced by intraperitoneal treatment with 200 mg/kg cyclophosphamide 4 days before the infection and with 100 mg/kg cyclophosphamide 1 day after the infection. Infection was induced by the intravenous inoculation of 0.2 mL of the cell suspension of Candida albicans TIMM1623 (about 3×10^4 CFU/mouse) via the lateral tail vein. The test compound was dissolved in 0.1 mol/L hydrochloric acid, diluted by sterilized water and orally administered at 1 mg/kg of mouse body weight. The therapy was started at 2 hours after infection and carried out once daily for 4 days. The equivalent amount of sterilized physiological saline was administered to the group to which no test compound was administered. The survival number of mice was observed and recorded for 14 days.

[4] = Adhesion test to a metal cup (Test Example 4); format: physicochemical; conditions: 5 g test material in SUS304 metal cup, weight adhering after turning over the cup
Procedure: 5 g of the test materials passed through a sieve (18 mesh) are filled in a metal cup (SUS304, the internal diameter: 65 mm, the volume: about 200 mL), and then the test materials were removed by turning over the cup. The weight of the test materials adhering on the surface of the cup was measured.

[5] = Compression moldability test, tablet hardness (Test Example 5); format: physicochemical; conditions: 200 mg tablets
Procedure: Tablets (flat-shaped, the diameter: 8.5 mm) containing 200 mg of the test materials were prepared by using a tableting process analyzer (Tab Flex TAB-10, OKADA SEIKO CO., LTD.) (The loading pressure: 5 and 10 kN). Next, the breaking strength of the tablets was measured by a tablet hardness tester (PC-30, OKADA SEIKO CO., LTD.).

[6] = Surface potential after corona discharge (Test Example 2); format: physicochemical; conditions: 25° C., 50% RH; corona discharge −4 kV for 2 minutes
Procedure: The following test was conducted in a thermo-hygrostat (25° C., 50% RH). The test materials were set in a sample plate (SUS304, the surface was ground by a buff400, the volume: about 6 mL, the depth: 3 mm, cylindrical, the upper aspect was opened), and was charged by corona discharge (the corona voltage: −4 kV) from an impressed voltage device for 2 minutes (the distance between the impressed voltage device and the sample plate: 30 mm). After charging, the surface potential of the test materials was measured (the distance between the sensor and the sample: 5 mm). Thermo-hygrostat: KCL-2000, EYELA CORPORATION Surface potential measurement device: SK-200, KEYENCE CORPORATION Impressed voltage device: SJ-G036, KEYENCE CORPORATION Data logger: AD-DIO Card Bus, Interface Corporation

With CCCCOC(=O)N=C(N)c1ccc(OCCCC2CCN(CCCOc3ccc(C(N)=NC(=O)OCCCC)cc3)CC2)cc1 [Type III crystal, 4-{3-[4-(3-{4-[amino(butoxycarbonylimino)methyl]phenoxy}propyl)-1-piperidinyl]propoxy}-N′-(butoxycarbonyl)benzamidine] the Tapped density [1] was 0.45 g/mL, the Scraper pressure [2] was 1.9 kN and the mice survived [3] was 80%. The Adhering amount [4] was 22 mg, the Hardness ([5]; Loading pressure 5 kN) was 66 N and the Hardness ([5]; Loading pressure 10 kN) was 95 N. The Surface potential [6] was −1.9 kV.

With CCCCOC(=O)N=C(N)c1ccc(OCCCC2CCN(CCCOc3ccc(C(N)=NC(=O)OCCCC)cc3)CC2)cc1 [Type IV crystal, 4-{3-[4-(3-{4-[amino(butoxycarbonylimino)methyl]phenoxy}propyl)-1-piperidinyl]propoxy}-N′-(butoxycarbonyl)benzamidine] the Tapped density [1] was 0.47 g/mL, the Scraper pressure [2] was 2.9 kN and the mice survived [3] was 80%. The Adhering amount [4] was 40 mg and the Surface potential [6] was −1.3 kV.

For CCCCOC(=O)N=C(N)c1ccc(OCCCC2CCN(CCCOc3ccc(C(N)=NC(=O)OCCCC)cc3)CC2)cc1 [Type I crystal, 4-{3-[4-(3-{4-[amino(butoxycarbonylimino)methyl]phenoxy}propyl)-1-piperidinyl]propoxy}-N′-(butoxycarbonyl)benzamidine], the Tapped density [1] was 0.22 g/mL, the Scraper pressure [2] was 7.2 kN and the mice survived [3] was 80%. The Adhering amount [4] was 70 mg, the Hardness ([5]; Loading pressure 5 kN) was 56 N and the Hardness ([5]; Loading pressure 10 kN) was 57 N. The Surface potential [6] was −2.3 kV.

With CCCCOC(=O)N=C(N)c1ccc(OCCCC2CCN(CCCOc3ccc(C(N)=NC(=O)OCCCC)cc3)CC2)cc1 [Type II crystal, 4-{3-[4-(3-{4-[amino(butoxycarbonylimino)methyl]phenoxy}propyl)-1-piperidinyl]propoxy}-N′-(butoxycarbonyl)benzamidine] the Tapped density [1] was 0.40 g/mL, the Scraper pressure [2] was 2.9 kN and the mice survived [3] was 80%. For the same compound, the Adhering amount [4] was 17 mg, the Hardness ([5]; Loading pressure 5 kN) was 63 N and the Hardness ([5]; Loading pressure 10 kN) was 94 N.
